Data on 4 compounds can be found in patent publication US3950346A, “Novel process for producing 2-ketoethylbenzomorphan derivatives and salts thereof” (Sumitomo Chemical Company, Limited, priority 1972, dated 1976).

Read-outs that look alike come from different tables or passages of the source.

Data set [1] in a line: Subcutaneous writhing test (antagonism of the syndrome produced by intraperitoneal 0.6% aqueous acetic acid). The settings on record: mice, 20 minutes before acetic acid, Litchfield-Wilcoxon's method. It counts as in vivo. The method, then:
[…]. Note: The test was based on the specific antagonism of the test compound to the typical syndrome produced by intraperitoneal injection of 0.6% aqueous acetic acid. The syndrome was characterized by intermittent contractions of the abdomen, twisting and turning of the trunk and extension of the hind legs. A group of 5 mice was used for each dose level. The test compound was administered subcutaneously 20 minutes before the injection of acetic acid. […] The ED50 value was calculated according to the Litchfield-Wilcoxon's method.

A short description of data set [2]: Physical dependency test: abstinence syndrome (body weight decrease on the day after drug withdrawal following 4 weeks of administration). It counts as in vivo, rats (male, Wistar strain). Further details: key to Abstinence syndrome: +++: severe decrease (about 5% decrease); ++: moderate decrease; +: mild decrease; -: no decrease. The settings on record: for Abstinence syndrome: 20 mg/kg/day, subcutaneously twice a day for 4 weeks, body weight decrease on next day after withdrawal, male Wistar rats; for addiction in long term animal tests / physical dependency: result in words; for physical dependency: orally or subcutaneously to rats everyday for 4 weeks. The procedure: Known 6,7-benzomorphan derivatives such as 2'-hydroxy-2,5,9-trimethyl-6,7-benzomorphan [cf. […] On account of this addiction liability, these analgesics are severely restricted in a therapeutic use.
Note: Groups of male rats of Wistar strain (body weight, 150 g at the beginning of the test), each group consisting of 20 male rats, were subcutaneously given the test compound twice a day for 4 consecutive weeks. On the next day after drug withdrawal, the body weight was measured. The symbols have the following meanings: +++, severe decrease (about 5% decrease); ++, moderate decrease; +, mild decrease; -, no decrease.

The conditions of data set [3]: known, cf. U.S. Pat. No. 3,138,603; result in words; cited from earlier work.
For data set [4] the following is noted: known, cf. U.S. Pat. No. 3,138,603; result in words; cited from earlier work. This is another data set of the same source.
[5] abbreviates: Mus musculus, sc, read-out: ED50.

As for `CC(C)=CCN1CCC2(C)c3cc(O)ccc3CC1C2C` (stereo not drawn) [Pentazocine, 2'-hydroxy-2-(3"-methyl-2"-butenyl)-5,9-dimethyl-6,7-benzomorphan, reference compound], the ED50 in data set [1] (setting [5]) stood at 17.5 mg/kg.

Take “2'-Hydroxy-2-(β-ethylcarbonylethyl)-5,9-dimethyl-6,7-benzomorphan”: in data set [1], the median effective dose (ED50) worked out at 7.0 mg/kg. Further, in data set [2], the Abstinence syndrome entry is “-”, the “addiction in long term animal tests” value is recorded as “do not show any addiction” and the physical dependency result is “did not produce any physical dependency”.

For `CCOC(=O)CCN1CCC2(C)c3cc(O)ccc3CC1C2C` (stereo not drawn) [2'-Hydroxy-2-(β-ethoxycarbonylethyl)-5,9-dimethyl-6,7-benzomorphan], the ED50 in data set [1] (setting [5]) stood at 16.1 mg/kg. For the same compound, in data set [2], the Abstinence syndrome result is listed as “-”, the “addiction in long term animal tests” value is “do not show any addiction” and the physical dependency entry is given as “did not produce any physical dependency”.

Consider `CC1C2Cc3ccc(O)cc3C1(C)CCN2C` (stereo not drawn) [2'-hydroxy-2,5,9-trimethyl-6,7-benzomorphan], for which the addiction liability entry in data set [3] is on record as “show an addiction liability”. The analgesic activity entry in data set [4] is “potent analgesic activity”. In addition, in data set [2], the Abstinence syndrome entry was “++”.
